Source: ChEMBL document CHEMBL5365400, “Design and synthesis of aminopyridine containing biaryls reducing c-MYC protein levels in cells” (Bioorg Med Chem Lett, 2023)
≈ marks a conversion by molar mass, not a printed value.

Legend:
[1] = Volume of distribution at steady state in po dosed rat; assay type: ADME, organism-based; conditions: in vivo
[2] = AUC (0 to infinity) in po dosed rat; assay type: ADME, organism-based; design: route po; conditions: in vivo
[3] = Lipophilicity, log D of the compound at pH 7.4 by chromatographic method; assay type: physicochemical; conditions: buffer
[4] = Cmax in po dosed rat; assay type: ADME, organism-based; design: route po; conditions: in vivo
[5] = Artificial membrane permeability of compound; assay type: physicochemical; conditions: PAMPA; read-out: permeability
[6] = Half life in po dosed rat; assay type: ADME, organism-based; conditions: in vivo
[7] = Oral bioavailability in rat; assay type: ADME, organism-based; conditions: in vivo
[8] = Aqueous solubility of compound; assay type: physicochemical; conditions: buffer
[9] = Clearance in po dosed rat; assay type: ADME, organism-based; conditions: in vivo

| chromatographic logD [3] | solubility [8] [µg/mL] | Structure (SMILES) | other results |
| --- | --- | --- | --- |
| 6 | 67 (≈ 198 µM) | CCOCCn1c(-c2ccc(N(CC)CC)nc2)nc2ccccc21 |  |
| 7.4 |  | CCOCCc1cc(Cl)cnc1-c1ccc(N(CC)CC)nc1 |  |
| 7.4 |  | CCOCCc1nc2ccccc2nc1-c1ccc(N(CC)CC)nc1 |  |
| 4.9 | > 65 | CCN(CC)c1ccc(-c2nn3ccncc3c2Cc2coc(C)n2)cn1 |  |
| 4.2 |  | CCOCCn1ccnc1-c1ccc(N(CC)CC)nc1 |  |
| 6.2 | 90 (≈ 237 µM) | CCOCCc1c(-c2ccc(N(CC)CC)nc2)c(=O)n(C)c2ccccc12 |  |
| 5.4 | 92 (≈ 255 µM) | CCN(CC)c1ccc(-n2nc3ccccc3c2Cc2coc(C)n2)cn1 |  |
| 5.4 |  | CCOCCc1cccnc1-c1ccc(N(CC)CC)nc1 |  |
| 7 | 33 (≈ 94.4 µM) | CCOCCc1c(-c2ccc(N(CC)CC)nc2)ncc2ccccc12 |  |
| 6.9 |  | CCOCCc1c(-c2ccc(N(CC)CC)nc2)cnc2ccccc12 |  |
| 4.2 | 169 (≈ 466 µM) | CCN(CC)c1ccc(-c2nc3cnccn3c2Cc2coc(C)n2)cn1 |  |
| 5.4 | 46 (≈ 127 µM) | CCN(CC)c1ccc(-c2nn3ccccc3c2Cc2coc(C)n2)cn1 |  |

The remaining lines, values behind:

| Structure (SMILES) | chromatographic logD [3] | solubility [8] [µg/mL] | other results |
| --- | --- | --- | --- |
| CCN(CC)c1ccc(-c2nc3ccccc3n2Cc2coc(C)n2)cn1 | 5.1 | 65 (≈ 180 µM) | Vdss [1]: 2.1 L/kg; AUC(0-inf) [2]: 126 ng·h/mL; Cmax [4]: 180 ng/mL; Papp [5]: 68 ×10⁻⁶ cm/s; half-life [6]: 13.2 min; bioavailability [7]: < 5%; clearance [9]: 160 mL/min/kg |
| CCN(CC)c1ccc(-c2nn3cccnc3c2Cc2coc(C)n2)cn1 | 4.9 | ≥ 142 |  |
| CCN(CC)c1ccc(-c2nc3ncccn3c2Cc2coc(C)n2)cn1 | 1.5 | ≥ 112 |  |
| Cc1nc(Cc2c(-c3ccc(N4[C@@H](C)CC[C@@H]4C)nc3)nc3cccnn23)co1 | 4.7 | 80 (≈ 206 µM) | Vdss [1]: 3.1 L/kg; AUC(0-inf) [2]: 108 ng·h/mL; Cmax [4]: 220 ng/mL; Papp [5]: 57 ×10⁻⁶ cm/s; half-life [6]: 14.4 min; clearance [9]: 180 mL/min/kg |
| CCOCCn1c(-c2ccc(N(CC)CC)nc2)nc(Br)c1Br | 6.9 |  |  |
| CCN(CC)c1ccc(-c2nc3nccnc3n2Cc2coc(C)n2)cn1 | 3.7 |  |  |
| CCOCCc1cc2ccccc2nc1-c1ccc(N(CC)CC)nc1 | 7.2 | 38 (≈ 109 µM) |  |
| CCN(CC)c1ccc(-c2nc3cccnn3c2Cc2coc(C)n2)cn1 | 5 | ≥ 187 | Vdss [1]: 2.4 L/kg; AUC(0-inf) [2]: 94 ng·h/mL; Cmax [4]: 110 ng/mL; Papp [5]: 68.5 ×10⁻⁶ cm/s; half-life [6]: 13.2 min; clearance [9]: 190 mL/min/kg |
| CCN(CC)c1ccc(-c2nc3ncncc3n2Cc2coc(C)n2)cn1 | 3 | ≥ 119 |  |
| CCOCCc1c(-c2ccc(N(CC)CC)nc2)c(=O)[nH]c2ccccc12 | 5 | 19 (≈ 52 µM) |  |
| CCOCCc1cc(-c2ccc(N(CC)CC)nc2)nc2ccccc12 | 8 |  |  |
